Key:
[1] = molecular target: Bruton's tyrosine kinase (BTK) (Homo sapiens (Human), UniProt Q06187); test: BTK enzyme inhibition assay (Cisbio HTRF kit); format: biochemical; details: 30 minutes reaction, fluorescence 665 nm/620 nm
Method: BTK enzyme evaluation with each compound of examples of the invention was performed by using BTK enzyme inhibition diagnosis kit (Cisbio, Codolet, France). […] Then, EDTA (ethylenediaminetetraacetic acid) was added thereto in order to terminate the reaction. At this time, the EDTA solution contained curopium-containing antibody (antiphosphoresidue antibody) and straptavidin-XL665 (SA-XL665, Cisbio). After incubation for 1 hour, fluorescence was measured. The emission values of 665 nm and 620 nm excited at 337 nm were measured with Envision reader. IC50 values were determined using GraphPad prism (version 5). Herein, the curve indicates a nonlinear regression model, which was determined by logarithmic functions and reaction values.

[2] = tested on: TMD8 cells; test: TMD8 cell growth inhibition (WST-1, 72 hours); format: cell-based; details: Homo sapiens, TMD8 ABC type DLBCL cell line, WST-1, absorbance 450 nm
Method: TDM-8 cells, the ABC (activated B-cell) type DLBCL (diffuse large B cell lymphoma) cell line sensitive to BTK signaling, were seeded in a 96-well plate at 30% confluency. Then, the compounds of the invention were treated thereto at different concentrations. 72 hours later, WST-1 reagent was added thereto. One hour later, absorbance was measured at 450 nm by using a spectramax spectrophotometer.

[3] = tested on: human peripheral blood mononuclear cells (human PBMC); test: TNFa inhibition in human PBMC monocytes (ELISA); format: cell-based; details: TNFa concentration in culture medium by ELISA, HSA/anti-HSA antibody coated plate, overnight culture, read-out: hPBMC IC50
Method: 20 ug/ml of human serum albumin (HAS) solution was prepared and distributed in a 96-well plate (200 μl/well). Reaction was induced at 4° C. for overnight and then 10% FBS solution was treated thereto (200 μl/well), followed by elimination. Lastly, 10 ug/ml of anti-HSA antibody was treated thereto (200 μl/well) for 1 hour, followed by elimination. An appropriate number of monocytes of human peripheral blood mononuclear cells (human PBMC) were distributed in the prepared 96-well plate. The target compounds were treated thereto at different concentration via serial dilution method, followed by culture for overnight. IC50 values of the compounds were determined by confirming the TNFa inhibition activity of the compounds between the maximum concentration (positive control) and the minimum concentration (negative control) of TNFa, and the results are shown in Table 8.

Bruton's tyrosine kinase (BTK), sequence (Q06187 whole entry): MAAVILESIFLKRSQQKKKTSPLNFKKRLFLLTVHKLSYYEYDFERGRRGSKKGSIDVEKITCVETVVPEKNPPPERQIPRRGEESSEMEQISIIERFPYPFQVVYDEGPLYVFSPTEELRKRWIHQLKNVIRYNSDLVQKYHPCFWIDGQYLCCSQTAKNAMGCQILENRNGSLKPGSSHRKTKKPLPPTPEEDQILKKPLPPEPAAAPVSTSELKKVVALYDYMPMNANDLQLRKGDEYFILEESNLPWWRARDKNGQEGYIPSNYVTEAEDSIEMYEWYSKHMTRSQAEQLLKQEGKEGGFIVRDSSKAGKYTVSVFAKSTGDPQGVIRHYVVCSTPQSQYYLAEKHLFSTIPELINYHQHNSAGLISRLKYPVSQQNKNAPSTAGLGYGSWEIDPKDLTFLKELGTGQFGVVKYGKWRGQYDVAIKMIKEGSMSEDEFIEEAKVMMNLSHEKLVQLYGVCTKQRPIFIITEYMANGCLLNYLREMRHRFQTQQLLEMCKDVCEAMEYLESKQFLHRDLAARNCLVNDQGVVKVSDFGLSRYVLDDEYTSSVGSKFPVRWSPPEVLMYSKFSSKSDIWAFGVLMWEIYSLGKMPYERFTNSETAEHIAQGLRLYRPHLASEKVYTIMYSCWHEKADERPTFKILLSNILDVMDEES

IC50 [1] [µM]	Structure (SMILES)	IC50 [2] [µM]	IC50 [3] [µM]
0.0006	CC(=O)N1CCc2ccc(Nc3ncc4c(Nc5c(C)cccc5C)nn(C)c4n3)cc2C1 [Example 1, 1-(7-(3-(2,6-dimethylphenylamino)-1-methyl-1H-pyrazolo[3,4-d]pyrimidine-6-ylamino)-3,4-dihydroisoquinoline-2(1H)-yl)ethaneone]	0.0411	0.035
–	Cc1cccc(C)c1Nc1nn(C)c2nc(Nc3ccc4c(c3)CNCC4)ncc12 [Example 2, N^3-(2,6-dimethylphenyl)-1-methyl-N^6-(1,2,3,4-tetrahydroisoquinoline-7-yl)-1H-pyrazolo[3,4-d]pyrimidine-3,6-diamine]	0.0301	0.0077
0.1	COc1cc2c(cc1Nc1ncc3c(Nc4c(C)cccc4C)nn(C)c3n1)CCNC2 [Example 4, N^1-(2,6-dimethylphenyl)-N^6-(7-methoxy-1,2,3,4-tetrahydroisoquinoline-6-yl)-1-methyl-1H-pyrazolo[3,4-d]pyrimidine-3,6-diamine]	0.572	0.209
0.01	Cc1cccc(C)c1Nc1nn(C)c2nc(Nc3ccc4c(c3)CCN(C(=O)C(F)(F)F)C4)ncc12 [Example 6, 1-(6-(3-(2,6-dimethylphenylamino)-1-methyl-1H-pyrazolo[3,4-d]pyrimidine-6-ylamino)-3,4-dihydroisoquinoline-2(1H)-yl)-2,2,2-trifluoroethaneone]	0.159	0.113
0.0008	Cc1cccc(C)c1Nc1nn(C)c2nc(Nc3ccc4c(c3)CCNC4)ncc12 [Example 7, N^3-(2,6-dimethylphenyl)-1-methyl-N^6-(1,2,3,4-tetrahydroisoquinoline-6-yl)-1H-pyrazolo[3,4-d]pyrimidine-3,6-diamine]	0.046	0.02
0.001	CC(=O)N1CCc2cc(Nc3ncc4c(Nc5c(C)cccc5C)nn(C)c4n3)ccc2C1 [Example 8, 1-(6-(3-(2,6-dimethylphenylamino)-1-methyl-1H-pyrazolo[3,4-d]pyrimidine-6-ylamino)-3,4-dihydroisoquinoline-2(1H)-yl)ethaneone]	0.093	0.0048
–	Cn1nc(Nc2ccccc2)c2cnc(Nc3ccc4c(c3)CNCC4)nc21 [Example 10, 1-methyl-N^3-phenyl-N^6-(1,2,3,4-tetrahydroisoquinoline-7-yl)-1H-pyrazolo[3,4-d]pyrimidine-3,6-diamine]	–	0.202
0.00375	Cn1nc(Nc2c(Cl)cccc2Cl)c2cnc(Nc3ccc4c(c3)CNCC4)nc21 [Example 12, N^3-(2,6-dichlorophenyl)-1-methyl-N^6 (1,2,3,4-tetrahydroisoquinoline-7-yl)-1H-pyrazolo[3,4-d]pyrimidine-3,6-diamine]	0.089	0.0026
0.003	CC(=O)N1CCc2ccc(Nc3ncc4c(Nc5c(Cl)cccc5Cl)nn(C)c4n3)cc2C1 [Example 13, 1-(7-(3-(2,6-dichlorophenylamino)-1-methyl-1H-pyrazolo[3,4-d]pyrimidine-6-ylamino)-3,4-dihydroisoquinoline-2(1H)-yl)ethaneone]	0.118	0.0055
0.002	C=CC(=O)N1CCc2ccc(Nc3ncc4c(Nc5c(C)cccc5C)nn(C)c4n3)cc2C1 [Example 14, 1-(7-(3-(2,6-dimethylphenylamino)-1-methyl-1H-pyrazolo[3,4-d]pyrimidine-6-ylamino)-3,4-dihydroisoquinoline-2(1H)-yl)prop-2-en-1-one]	0.032	0.031
–	Cn1nc(Nc2c(Cl)cccc2Cl)c2cnc(Nc3ccc4c(c3)CCNC4)nc21 [Example 15, N^3-(2,6-dichlorophenyl)-1-methyl-N^6-(1,2,3,4-tetrahydroisoquinoline-6-yl)-1H-pyrazolo[3,4-d]pyrimidine-3,6-diamine]	0.041	0.0013
0.003	CC(=O)N1CCc2cc(Nc3ncc4c(Nc5c(Cl)cccc5Cl)nn(C)c4n3)ccc2C1 [Example 16, 1-(6-(3-(2,6-dichlorophenylamino)-1-methyl-1H-pyrazolo[3,4-d]pyrimidine-6-ylamino)-3,4-dihydroisoquinoline-2(1H)-yl)ethaneone]	0.061	0.0032
0.00522	Cc1ccc(NC(=O)c2cccc(C(F)(F)F)c2)cc1Nc1nn(C)c2nc(Nc3ccc4c(c3)C(C)N(C)CC4)ncc12 (stereo not drawn) [Example 64, N-(3-((6-((1,2-dimethyl-1,2,3,4-tetrahydroisoquinolin-7-yl)amino)-1-methyl-1H-pyrazolo[3,4-d]pyrimidine-3-yl)amino)-4-methylphenyl)-3-(trifluoromethyl)benzamide]	0.0101	–
0.00774	Cc1cccc(C)c1Nc1nn(C)c2nc(Nc3ccc4c(c3)C(C(C)C)N(C)CC4)ncc12 (stereo not drawn) [Example 65, N3-(2,6-dimethylphenyl)-N 6-(1-isopropyl-2-methyl-1,2,3,4-tetrahydroisoquinoline-7-yl)-1-methyl-1H-pyrazolo[3,4-d]pyrimidine-3,6-diamine]	0.274	–
